Assay [1] concerns bronchial carcinoma (lung cancer). As to the kind of experiment: Therapy outcome of chemotherapy in patients, assessed by computer tomography after two to three cycles. In kind it is in vivo, human. Details: key: PR=partial response (i.e. the carcinoma has become detectably smaller); NC=“No Change”=zero growth of the carcinoma; Progress=the carcinoma has continued to grow, no therapeutic success. The conditions noted are these: patient tumor ID 282, NSCLC/St. IV; without platinum derivatives. From the text: The therapy outcome, namely the change or the state of the tumor after two to three cycles of treatment compared to the state before the start of treatment, has been analyzes by computer tomography and classified on the basis of the “standard”—rating scale known and conventional in the art as class I=complete remission (CR), class II=partial remission (PR), class III=zero growth (“no change”, NC) and class IV=Progress (progressive tumor growth). The therapy outcomes achieved are shown in table 1, column 5 and in table 2 in column 3 of each group (1 to 4).

Assay [2] concerns tumor cells of lung cancer (bronchial carcinoma) tissue samples. Briefly: Chemosensitivity test (IC50 determination) by colony formation in tumor digests ex vivo. In kind it is cell-based, human. The procedure:
Parts of freshly (under general anesthesia of the patient) taken (here biopsied) lung cancer (bronchial carcinoma) tissue were transported to the laboratory and processed immediately for IC50 determination.
The transport to the laboratory should take place in chilled culture medium. For this purpose in particular HEPES- and NaHCO3-buffered, preferably flavin-free RPMI 1640 culture medium containing 10% fetal bovine serum, 100 IU/mL penicillin G, 100 ug/mL streptomycin, 20 μg/mL Amikacin (as antibiotics) and […] Voriconazole (as an antifungal agent) are suitable.
In the laboratory, this tumor tissue samples were cleaned, weighed, minced and suspended in culture medium.
For this purpose in particular the method according to DE 102012003700 B3 is suitable, wherein about 5.5 mg tumor tissue sample per 1 mL of culture medium are subjected to enzymatic digestion with collagenase, preferably by using Clostridium histolytikum collagenase (Sigma, 230 CDU/mL), in a Petri dish under standard conditions in a gassing incubator (36-37° C., 3.5% CO2 in water vapor saturated air) for 4-5 hours.
Following the collagenase digestion, the digestion product is centrifuged at 50×g, the supernatant is discarded and the pellet is resuspended in 1 mL of fresh culture medium. With this resuspension—hereinafter referred to as “tumor digest”—the chemosensitivity test (IC50 determination) is performed
The thus prepared culture plates were pre-incubated for about 1 hour under standard conditions (i.e.: gassing incubator; 36-37° C.; 3.5% CO2 in water vapor saturated air). Subsequently, 150 μl tumor digest were added to these pre-incubated wells, they were incubated for 72 hours under standard conditions (see above), and then analyzed microscopically.
After the end of incubation, in all tumor digest test preparations the culture medium was removed, and the existing cell colonies were rinsed with phosphate buffered saline (PBS) and drained. Subsequently, the cells were fixed with methanol at minus (−) 25° C. for 5 to 10 minutes and then subjected to Giemsa staining according to Gurr.

Assay [3] has as its system lung adenocarcinoma cell strain A240286S. Briefly: Verification test of cisplatin concentrations by IC50 determination (cell counting). The conditions noted are these: 72 hours; 15 evaluable test preparations; read-out: IC50-values of A240286S cells in the verification tests, average. Type of assay: cell-based, human. The procedure: The final concentration gradients were pre-incubated for approximately 30 minutes under standard conditions (see above). […] The culture plate was then incubated, in parallel with the culture plate fitted with the tumor digests, for 72 hours under standard conditions. In the batches of the verification test (with the cells of the lung adenocarcinoma cell strain A240286S) the culture medium was decanted after the end of incubation. The present cellular layers were rinsed with PBS, drained and then removed from the culture vessel with Accutase. The cells were isolated by passing them through a blunt cannula no. 20. Using a cell-counting-and-analyzing apparatus (here the Casy I Cell Analyzer from Roche, Basel), the cell density was determined for each test batch and reduced by the inoculum.

“And” between values parts separate entries of the source, which are not always exact repeats. Identical values can stand only once. Like-named read-outs stand apart in the source and are kept apart here.

Regarding `Nc1ccn([C@@H]2O[C@H](CO)[C@@H](O)C2(F)F)c(=O)n1` [Gemcitabine], the Therapy outcome in assay [1] is recorded as “Progress”.
On to `N.N.[Cl][Pt][Cl]` [cisplatin], for which the IC50 in assay [2] (Group 1 (IC50 < 5 μM), 3 tumor samples, read-out: IC50 mean value) was 3.64 µM; in assay [2] (Group 2 (IC50 ≧ 5 < 8 μM), 7 tumor samples, read-out: IC50 mean value), 6.73 µM and 6.72 µM; in assay [2] (Group 3 (IC50 ≧ 8 bis 25.6 μM), 5 tumor samples, read-out: IC50 mean value), 21.1 µM; in assay [2] (tumor sample ID 220, SCLC/St. IV, 72 hours, colonies of epithelial tumor cells, read-out: IC50), 2.6 µM; in assay [2] (tumor sample ID 221, NSCLC/St. IV, 72 hours, read-out: IC50), 7.77 µM; in assay [2] (tumor sample ID 228, NSCLC/St. IV, 72 hours, read-out: IC50), over 26 µM. Besides, the half-inhibitory concentration (IC50) in assay [2] (tumor sample ID 233, NSCLC/St. IV, 72 hours, read-out: IC50) is over 26 µM; in assay [2] (tumor sample ID 245, NSCLC/St. IV, 72 hours, read-out: IC50), 7.74 µM; in assay [2] (tumor sample ID 255, SCLC/St. IV, 72 hours, read-out: IC50) it was 4.58 µM; in assay [2] (tumor sample ID 258, NSCLC/St. IV, 72 hours, read-out: IC50), 16.7 µM; in assay [2] (tumor sample ID 260, NSCLC/St. IIIb, 72 hours, read-out: IC50) it was 5.61 µM; in assay [2] (tumor sample ID 272, SCLC/St. IV, 72 hours, read-out: IC50) it was 21 µM. In addition, the concentration for half-maximal inhibition (IC50) in assay [2] (tumor sample ID 275, NSCLC/St. IV, 72 hours, read-out: IC50) amounted to 5.38 µM; in assay [2] (tumor sample ID 277, NSCLC/St. IIIa, 72 hours, read-out: IC50) it was 7.58 µM; in assay [2] (tumor sample ID 278, NSCLC/St. IV (adenocarcinoma), 72 hours, read-out: IC50) it was 5.25 µM; in assay [2] (tumor sample ID 279, NSCLC/St. IV (squamous cell carcinoma), 72 hours, read-out: IC50), 3.73 µM; in assay [2] (tumor sample ID 282, NSCLC/St. IV, 72 hours, read-out: IC50), 14.8 µM; in assay [2] (tumor sample ID 294, NSCLC/St. IV, 72 hours, read-out: IC50), 7.7 µM. Besides, the half-inhibitory concentration (IC50) in assay [2] (tumor sample ID 297, NSCLC/St. IV, 72 hours, read-out: IC50) stood at 25.6 µM; in assay [2] (tumor sample ID 311, NSCLC/KI. IIIb, 72 hours, read-out: IC50), 22.1 µM; in assay [2] (tumor sample ID 314, NSCLC/KI. IV, 72 hours, read-out: IC50), 20.5 µM; in assay [3] it was 1.2 µM.

In general, IC50 refers to the concentration that inhibits the measured activity by half.
